The record followed here is PubChem BioAssay AID1259407 (Chemical Carcinogenesis Research Information System (CCRIS), 2018).

The data set relates to CCRIS mutagenicity, Ames/micronucleus/aberration tests. Briefly: CCRIS mutagenicity studies.
Setting [1] is: Test System: AMES SALMONELLA TYPHIMURIUM, Strain/Indicator: TA98, Metabolic Activation: NONE, Method: PREINCUBATION
Setting [2] is: Test System: AMES SALMONELLA TYPHIMURIUM, Strain/Indicator: TA98, Metabolic Activation: NONE, Method: STANDARD PLATE.
Setting [3] is: Test System: AMES SALMONELLA TYPHIMURIUM, Strain/Indicator: TA98, Metabolic Activation: RAT, LIVER, S-9, AROCLOR 1254, Method: PREINCUBATION
Where [4] appears, read: Test System: AMES SALMONELLA TYPHIMURIUM, Strain/Indicator: TA98, Metabolic Activation: RAT, LIVER, S-9, AROCLOR 1254, Method: STANDARD PLATE.
Setting [5] is: Test System: AMES SALMONELLA TYPHIMURIUM, Strain/Indicator: TA100, Metabolic Activation: NONE, Method: PREINCUBATION
[6] abbreviates: Test System: AMES SALMONELLA TYPHIMURIUM, Strain/Indicator: TA100, Metabolic Activation: NONE, Method: STANDARD PLATE.
Setting [7] is: Test System: AMES SALMONELLA TYPHIMURIUM, Strain/Indicator: TA100, Metabolic Activation: RAT, LIVER, S-9, AROCLOR 1254, Method: PREINCUBATION
[8] abbreviates: Test System: AMES SALMONELLA TYPHIMURIUM, Strain/Indicator: TA100, Metabolic Activation: RAT, LIVER, S-9, AROCLOR 1254, Method: STANDARD PLATE.

Calls of active or inactive are those of the source. The rule behind the calls is not given here.

With `C=CC(=O)OCC`, the mutagenic call is “inactive; negative” (End Point: IN VITRO CHROMOSOMAL ABERRATIONS, Test System: CHO-LB CELLS, Metabolic Activation: NONE); “active; positive” (End Point: IN VITRO CHROMOSOMAL ABERRATIONS, Test System: CHO-LB CELLS, Metabolic Activation: RAT, LIVER, S-9, AROCLOR 1254); “inactive; negative” (Test System: AMES SALMONELLA TYPHIMURIUM, Strain/Indicator: TA98, Metabolic Activation: HAMSTER, LIVER, S-9, AROCLOR 1254, Method: PREINCUBATION); “inactive; negative” under setting [1]; “inactive; negative” under setting [2]; “inactive; negative” under setting [3]. The mutagenic call is, setting by setting: under setting [4], “inactive; negative”; (Test System: AMES SALMONELLA TYPHIMURIUM, Strain/Indicator: TA98, Metabolic Activation: RAT, LIVER, S-9, SODIUM PHENOBARBITAL, Method: STANDARD PLATE) “inactive; negative”; (Test System: AMES SALMONELLA TYPHIMURIUM, Strain/Indicator: TA100, Metabolic Activation: HAMSTER, LIVER, S-9, AROCLOR 1254, Method: PREINCUBATION) “inactive; negative”; under setting [5], “inactive; negative”; under setting [6], “inactive; negative”; under setting [7], “inactive; negative”. The mutagenic call by setting is: under setting [8], “inactive; negative”; (Test System: AMES SALMONELLA TYPHIMURIUM, Strain/Indicator: TA100, Metabolic Activation: RAT, LIVER, S-9, SODIUM PHENOBARBITAL, Method: STANDARD PLATE) “inactive; negative”; (Test System: AMES SALMONELLA TYPHIMURIUM, Strain/Indicator: TA1535, Metabolic Activation: HAMSTER, LIVER, S-9, AROCLOR 1254, Method: PREINCUBATION) “inactive; negative”; (Test System: AMES SALMONELLA TYPHIMURIUM, Strain/Indicator: TA1535, Metabolic Activation: NONE, Method: PREINCUBATION) “inactive; negative”; (Test System: AMES SALMONELLA TYPHIMURIUM, Strain/Indicator: TA1535, Metabolic Activation: NONE, Method: STANDARD PLATE) “inactive; negative”; (Test System: AMES SALMONELLA TYPHIMURIUM, Strain/Indicator: TA1535, Metabolic Activation: RAT, LIVER, S-9, AROCLOR 1254, Method: PREINCUBATION) “inactive; negative”. Also, the mutagenic call is, setting by setting: (Test System: AMES SALMONELLA TYPHIMURIUM, Strain/Indicator: TA1535, Metabolic Activation: RAT, LIVER, S-9, AROCLOR 1254, Method: STANDARD PLATE) “inactive; negative”; (Test System: AMES SALMONELLA TYPHIMURIUM, Strain/Indicator: TA1535, Metabolic Activation: RAT, LIVER, S-9, SODIUM PHENOBARBITAL, Method: STANDARD PLATE) “inactive; negative”; (Test System: AMES SALMONELLA TYPHIMURIUM, Strain/Indicator: TA1537, Metabolic Activation: HAMSTER, LIVER, S-9, AROCLOR 1254, Method: PREINCUBATION) “inactive; negative”; (Test System: AMES SALMONELLA TYPHIMURIUM, Strain/Indicator: TA1537, Metabolic Activation: NONE, Method: PREINCUBATION) “inactive; negative”; (Test System: AMES SALMONELLA TYPHIMURIUM, Strain/Indicator: TA1537, Metabolic Activation: NONE, Method: STANDARD PLATE) “inactive; negative”; (Test System: AMES SALMONELLA TYPHIMURIUM, Strain/Indicator: TA1537, Metabolic Activation: RAT, LIVER, S-9, AROCLOR 1254, Method: PREINCUBATION) “inactive; negative”. Moreover, the mutagenic call was “inactive; negative” (Test System: AMES SALMONELLA TYPHIMURIUM, Strain/Indicator: TA1537, Metabolic Activation: RAT, LIVER, S-9, AROCLOR 1254, Method: STANDARD PLATE); “inactive; negative” (Test System: AMES SALMONELLA TYPHIMURIUM, Strain/Indicator: TA1537, Metabolic Activation: RAT, LIVER, S-9, SODIUM PHENOBARBITAL, Method: STANDARD PLATE); “inactive; negative” (Test System: AMES SALMONELLA TYPHIMURIUM, Strain/Indicator: TA1538, Metabolic Activation: NONE, Method: STANDARD PLATE); “inactive; negative” (Test System: AMES SALMONELLA TYPHIMURIUM, Strain/Indicator: TA1538, Metabolic Activation: RAT, LIVER, S-9, AROCLOR 1254, Method: STANDARD PLATE); “inactive; negative” (Test System: AMES SALMONELLA TYPHIMURIUM, Strain/Indicator: TA1538, Metabolic Activation: RAT, LIVER, S-9, SODIUM PHENOBARBITAL, Method: STANDARD PLATE); “inactive; negative” (Test System: Ames Salmonella typhimurium, Strain/Indicator: YG7108pin3ERb5, Metabolic Activation: None, Method: Standard plate). The mutagenic call runs as follows: (Test System: CHINESE HAMSTER OVARY, Strain/Indicator: CHO-K1-BH4 (HGPRT)/6-THIOGUANINE, Metabolic Activation: NONE, Method: SUSPENSION/PLATE) “active; positive”; (Test System: CHINESE HAMSTER OVARY, Strain/Indicator: CHO-K1-BH4 (HGPRT), Metabolic Activation: NONE, Method: MONOLAYER) “active; positive”; (Test System: CHINESE HAMSTER OVARY, Strain/Indicator: CHO-K1-BH4 (HGPRT), Metabolic Activation: NONE, Method: SUSPENSION/PLATE) “active; positive”; (Test System: MOUSE LYMPHOMA, Strain/Indicator: L5178Y (TK+/TK-), Metabolic Activation: RAT, LIVER, S-9, AROCLOR 1254, Method: SUSPENSION/PLATE) “active; positive. reevaluation of results: positive”; (Test System: MOUSE LYMPHOMA, Strain/Indicator: L5178Y (TK+/TK-), Metabolic Activation: RAT, LIVER, S-9, AROCLOR, Method: SUSPENSION/PLATE) “active; positive”.
Regarding `O=[N+]([O-])c1cc2c3c(ccc2c2ccccc12)[C@H](O)[C@@H](O)C=C3`, the mutagenic call was “active; positive” under setting [1]; “inactive; negative” under setting [2]; “inactive; negative” under setting [3]; “active; positive” under setting [4]; “active; positive” under setting [5]; “active; positive” under setting [6]. The mutagenic call is “active; positive” under setting [7]; “active; positive” under setting [8]; “inactive; negative” (Test System: CHINESE HAMSTER OVARY, Strain/Indicator: CHO-K1-BH4 (HGPRT)/6-THIOGUANINE, Metabolic Activation: NONE, Method: STANDARD PLATE); “active; positive” (Test System: CHINESE HAMSTER OVARY, Strain/Indicator: CHO-K1-BH4 (HGPRT)/6-THIOGUANINE, Metabolic Activation: RAT, LIVER, S-9, AROCLOR 1254, Method: STANDARD PLATE); “inactive; negative” (Test System: CHINESE HAMSTER OVARY, Strain/Indicator: CHO-UV5 (HGPRT)/6-THIOGUANINE, Metabolic Activation: NONE, Method: STANDARD PLATE); “active; positive” (Test System: CHINESE HAMSTER OVARY, Strain/Indicator: CHO-UV5 (HGPRT)/6-THIOGUANINE, Metabolic Activation: RAT, LIVER, S-9, AROCLOR 1254, Method: STANDARD PLATE).
